Experimental data reported in PubChem BioAssay AID1645862 (Buhrlage Lab, Dana-Farber Cancer Institute and Novartis …, 2021).
pIC50: −log10 of the molar value. Active and inactive are the calls of the source. How the calls were made is not given here.

What follows are compounds tested against Ubiquitin carboxyl-terminal hydrolase 8 (Homo sapiens) (UniProt P40818) (assay: Ubiquitin-specific protease 8 inhibitors, concentration-effect, biochemical, validation of initial actives (AID 1645862;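 further: potency reflects inhibition of USP8 cleavage of a ubiquitin rhodamine substrate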)). Details: recombinant USP8 deubiquitinase activity assay.
Sequence of Ubiquitin carboxyl-terminal hydrolase 8 (Homo sapiens) (P40818 whole entry, looked up): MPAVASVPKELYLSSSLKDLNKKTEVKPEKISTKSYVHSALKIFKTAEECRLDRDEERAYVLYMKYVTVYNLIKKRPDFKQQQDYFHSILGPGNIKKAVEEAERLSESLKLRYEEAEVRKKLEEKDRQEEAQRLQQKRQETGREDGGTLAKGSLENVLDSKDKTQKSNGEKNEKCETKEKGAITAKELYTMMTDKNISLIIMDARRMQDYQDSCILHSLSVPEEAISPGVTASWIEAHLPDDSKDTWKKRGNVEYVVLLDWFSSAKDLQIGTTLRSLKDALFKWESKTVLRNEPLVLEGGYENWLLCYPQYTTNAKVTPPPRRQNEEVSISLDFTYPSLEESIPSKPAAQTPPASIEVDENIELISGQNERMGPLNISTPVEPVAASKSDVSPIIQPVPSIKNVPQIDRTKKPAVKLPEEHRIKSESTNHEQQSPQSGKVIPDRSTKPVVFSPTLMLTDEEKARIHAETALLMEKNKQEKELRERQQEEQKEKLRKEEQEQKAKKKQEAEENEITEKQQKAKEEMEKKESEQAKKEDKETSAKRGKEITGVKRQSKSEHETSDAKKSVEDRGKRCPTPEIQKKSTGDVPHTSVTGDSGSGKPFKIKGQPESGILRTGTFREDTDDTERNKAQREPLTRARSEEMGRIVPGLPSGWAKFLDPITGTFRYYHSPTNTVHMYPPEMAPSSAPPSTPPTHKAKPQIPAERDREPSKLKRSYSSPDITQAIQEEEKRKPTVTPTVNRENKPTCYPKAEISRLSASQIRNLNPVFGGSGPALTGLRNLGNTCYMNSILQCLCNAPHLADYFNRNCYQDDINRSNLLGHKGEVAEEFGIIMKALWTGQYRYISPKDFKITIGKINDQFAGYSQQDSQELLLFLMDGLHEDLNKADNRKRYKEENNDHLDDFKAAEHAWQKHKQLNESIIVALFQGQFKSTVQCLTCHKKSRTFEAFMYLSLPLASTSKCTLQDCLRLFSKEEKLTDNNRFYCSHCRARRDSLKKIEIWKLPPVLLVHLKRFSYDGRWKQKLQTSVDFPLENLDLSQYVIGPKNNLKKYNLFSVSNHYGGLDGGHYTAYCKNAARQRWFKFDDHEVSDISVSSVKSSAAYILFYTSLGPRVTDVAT
In the case of `O=C(CCCCCn1c(=O)c2sccc2n(CC(=O)c2ccc(F)cc2)c1=O)NCc1ccccc1Cl`, the IC50 was > 40 µM (inactive). `O=C(Nc1ccc(Br)cc1F)c1ccc(S(=O)(=O)N2CCCC2)cc1` was tested, and the IC50 was > 40 µM (inactive). `COc1ccc(CNC(=O)c2ccc3c(=O)nc4c(-c5cccc(C)c5)n[nH]n4c3c2)cc1` was tested, and the IC50 was > 40 µM (inactive). For `O=C(CSc1nc(=O)n(Cc2ccncc2)c2c1CCC2)NCCc1ccccc1`, the IC50 was > 40 µM (inactive). In the case of `COc1ccc(N(CC(=O)NC2CCCCC2)C(=O)c2ccc(-c3ccccc3)[nH]2)cc1OC`, the IC50 was > 40 µM (inactive). In the case of `Cc1cccc(NC(=O)CSc2nnc(NC(=O)c3ccc4ccccc4c3)s2)c1`, the IC50 was > 40 µM (inactive). With `CCc1ccc(NC(=O)CSc2nc3nccnc3c(=O)n2Cc2ccc(F)cc2)cc1` the IC50 was > 40 µM (inactive). With `NC(=O)c1nc(-c2cccnc2)nc2c1[nH]c(=O)n2-c1ccc2c(c1)OCO2` the IC50 was > 40 µM (inactive). For `COc1ccc(C)cc1NC(=O)Nc1nnc(CC(=O)NCc2ccccc2)s1`, the IC50 was > 40 µM (inactive). In the case of `COc1ccc(Cl)cc1C(=O)NNC(=O)c1cc(-c2ccccc2)n[nH]1`, the IC50 was > 40 µM (inactive). In the case of `CCOc1ccccc1NC(=O)Cn1c(=O)n(CCC(=O)NCCc2ccc(OC)c(OC)c2)c(=O)c2ccccc21`, the IC50 was > 40 µM (inactive). With `CCN(c1ccc(NC(=O)CSc2nnc(-c3ccccc3)n2-c2ccc(OC)c(OC)c2)cc1)C(C)C` the IC50 was > 40 µM (inactive). `Cc1nc(N2CCN(c3ccc(Cl)cc3)CC2)c2oc3ccccc3c2n1` was tested, and the IC50 was > 40 µM (inactive). In the case of `Cc1ccc(NC(=O)c2cc(-c3cccnc3)n[nH]2)cc1F`, the IC50 was > 40 µM (inactive). With `O=c1oc2c3c(c(Cl)cc2c2c1CCCC2)OCN(Cc1ccccc1)C3` the IC50 was > 40 µM (inactive). With `Cc1nc(C(=O)NC2(O)C(=O)c3ccccc3C2=O)cs1` the pIC50 was 5.37. Work on `Cc1cc(C(=O)NC2(O)C(=O)c3ccccc3C2=O)n(C)n1` yielded a pIC50 of 5.09. For `COc1ccc2nc(-c3ccc(NC(=O)c4cccc(OC)c4OC)cc3)cn2n1`, the IC50 was > 40 µM (inactive). For `Cc1nc2c(nnn2C[C@H]2CCCN2C(=O)c2ccc(F)cc2)c(=O)[nH]1`, the IC50 was > 40 µM (inactive). With `C[C@@H]1CO[C@@H]2C3=C(C(=O)C=CC3=O)[C@H]3OC(=O)[C@@H]4CCC5[C@@H]1CCC52C34` (some centres undefined) the pIC50 was 4.60. `N#Cc1cccc(NC(=O)Cn2cccc2-c2nc(-c3ccccc3)no2)c1` was tested, and the IC50 was > 40 µM (inactive). In the case of `COc1ccc(-c2cc3nc([C@H](C)NC(=O)Cc4cc(F)ccc4F)nn3cn2)cc1`, the IC50 was > 40 µM (inactive). In the case of `O=C(CN1CC=C(c2ccccc2)CC1)Nc1ccc(S(=O)(=O)N2CCOCC2)cc1`, the IC50 was > 40 µM (inactive). With `COc1ccc(-c2cc3c(=O)n(CC(=O)Nc4ccccc4C)ccn3n2)cc1` the IC50 was > 40 µM (inactive). `O=C(COc1ccc(Cl)cc1Cl)Nc1ccccc1-c1nc2ccccc2[nH]1` was tested, and the IC50 was > 40 µM (inactive). For `CCC(=O)Nc1nc2cc(NC(=O)Nc3cccc(C)c3)ccc2s1`, the IC50 was > 40 µM (inactive). With `Cn1nc(Cl)c(Cl)c1Oc1ccc(S(=O)(=O)Nc2ccc(Oc3ccc(C(F)(F)F)cn3)c(Cl)c2)cc1` the IC50 was > 40 µM (inactive). With `O=C(Cn1nc(-c2ccccc2)cc(NC(=O)c2ccccc2)c1=O)Nc1ccc(F)cc1` the IC50 was > 40 µM (inactive). `O=C(CCSc1ccc(Cl)cc1)c1cccs1` was tested, and the IC50 was > 40 µM (inactive). With `C/C(=C\Cc1c(O)cc(C)c(C=O)c1O)CC[C@@]1(C)[C@H](C)CCC(=O)[C@@H]1C` the IC50 was > 40 µM (inactive). For `c1cncc(-c2cnc3sc(NC4CCCCC4)nn23)c1`, the IC50 was > 40 µM (inactive). In the case of `O=C(NC1CCCC1)c1ccc(-c2ccc(S(=O)(=O)NCc3ccccc3)cc2)cc1`, the IC50 was > 40 µM (inactive). `O=C(Nc1cccc(C(F)(F)F)c1)c1cc2c(s1)-c1ccccc1OC2` was tested, and the IC50 was > 40 µM (inactive). `CC(C)=CCOC(C)(C)[C@H]1OC2CC[C@@]3(C)C(CCC4Cc5c([nH]c6ccccc56)[C@@]43C)C23OC3[C@@H]1O` (some centres undefined) showed a pIC50 of 4.46. `Cc1cc(N2CCOCC2)nc(N2CCN(C(=O)C(C)Oc3ccccc3)CC2)n1` (centres undefined) was tested, and the IC50 was > 40 µM (inactive). `O=C(Nc1cc(S(=O)(=O)Nc2ccc(Cl)cc2)ccc1O)c1cc2c(s1)CCC2` gave a pIC50 of 4.97. `O=C(COc1ccc(N2CC(C(=O)NCc3ccccc3)CC2=O)cc1)Nc1ccccc1Cl` (centres undefined) was tested, and the IC50 was > 40 µM (inactive). `O=C(Oc1ccc2cc(Br)ccc2c1)c1ccncc1` was tested, and the IC50 was > 40 µM (inactive). With `CCCc1nnc(C(=O)Nc2ccc(C(=O)NC(C)c3ccccc3)cc2)s1` (centres undefined) the IC50 was > 40 µM (inactive). In the case of `COc1ccc(-c2cc3nc([C@H](C)NC(=O)Cc4cccc(F)c4)nn3cn2)cc1`, the IC50 was > 40 µM (inactive). `Nc1c(C(=O)NCc2ccc3c(c2)OCO3)nnn1Cc1ccc(Br)cc1F` was tested, and the IC50 was > 40 µM (inactive). Compound `Cc1cc(C(F)(F)F)n2nc(C3CCN(C(=O)c4cnn(C)c4C)C3)cc2n1` (centres undefined) has a pIC50 of 4.62. For `Cn1c(=O)[nH]c2nncnc2c1=O`, the pIC50 was 4.68. In the case of `COc1ccc(CNC(=O)C2CCCN(S(=O)(=O)Cc3ccc(Cl)cc3)C2)cc1` (centres undefined), the IC50 was > 40 µM (inactive). In the case of `O=C1CC(C(=O)Nc2ccc3c(c2)OCO3)n2nc(SCc3ccccc3)nc2N1` (centres undefined), the IC50 was > 40 µM (inactive). For `Cc1ccc(NC(=O)c2ccc3nn(CC(=O)Nc4ccc(C)cc4C)c(=O)n3c2)cc1`, the IC50 was > 40 µM (inactive). With `COc1ccc(S(=O)(=O)NC2CC(=O)N(c3ccc(Cl)cc3)C2)cc1` (centres undefined) the IC50 was > 40 µM (inactive). With `COc1ccc(COc2ccc3c(C)c(CC(=O)N4CC[C@@]5(O)CCCC[C@H]5C4)c(=O)oc3c2)cc1` the IC50 was > 40 µM (inactive). In the case of `Cc1cccc(OCCn2c(CCNC(=O)C3CCCCC3)nc3ccccc32)c1`, the IC50 was > 40 µM (inactive). In the case of `COc1ccc(OC)c(NC(=O)c2sc(-c3ccccc3)nc2C)c1`, the IC50 was > 40 µM (inactive). `COC(=O)c1ccccc1NC(=O)C1CCCN(c2nnc(-n3cccc3)s2)C1` (centres undefined) was tested, and the IC50 was > 40 µM (inactive). With `COc1cccc(C2c3[nH]c4ccccc4c3C[C@@H]3C(=O)N(C4CC4)CC(=O)N23)c1` (some centres undefined) the IC50 was > 40 µM (inactive). Compound `Cn1nc(C(=O)N2CCC(c3ccccc3)C2)c2c1-c1ccsc1CC2` (centres undefined) has a pIC50 of 4.42. In the case of `C[C@H](NC(=O)Cc1ccccc1F)c1nc2cc(-c3ccccc3F)ncn2n1`, the IC50 was > 40 µM (inactive). In the case of `O=S1(=O)CCN(Cc2cccnc2)c2c(F)nc(N3CCOCC3)c(F)c21`, the IC50 was > 40 µM (inactive). With `Cc1ccc(Cn2nnc3c(=O)[nH]c(C4CCN(S(=O)(=O)c5ccc(S(=O)(=O)NC6CCCC6)cc5)CC4)nc32)cc1` the IC50 was > 40 µM (inactive). Work on `Cc1ccc(NC(=O)Nc2ccc(C)n(CC(=O)Nc3ccc(C)c(C)c3)c2=O)cc1` yielded a pIC50 of 4.41. `O=C(Nc1ccccc1C(F)(F)F)c1cccc(S(=O)(=O)Nc2cc(C(F)(F)F)ccc2Cl)c1` was tested, and the IC50 was > 40 µM (inactive). With `COc1ccc(NC(=O)c2cc(-c3cccnc3)n[nH]2)cc1Cl` the IC50 was > 40 µM (inactive). `CC(c1ccccc1)N1CC(O)=C(c2nc3ccccc3s2)C1=N` (centres undefined) was tested, and the IC50 was > 40 µM (inactive). For `COc1cc(OC)c2c(c1)C(=O)C1=C(COC(C)(O)C1)C2=O` (centres undefined), the IC50 was > 40 µM (inactive). With `CN1c2ccccc2C(=O)NC12CCN(C(=O)NCc1ccccc1)CC2` the IC50 was > 40 µM (inactive). For `CCOc1ccc2c(c1)c(=O)c(C(=O)c1ccccc1)cn2CC(=O)Nc1ccc(OC)cc1`, the IC50 was > 40 µM (inactive). For `CS(=O)(=O)NC1CCCN(C(=O)Nc2cccc3ccccc23)C1` (centres undefined), the IC50 was > 40 µM (inactive). For `CCOC(=O)N1CCC(NC(=O)c2cc(C(=O)Nc3ccc(S(=O)(=O)N4CCCCC4)cc3)ccc2CO)CC1`, the IC50 was > 40 µM (inactive). In the case of `Cc1ccc(-n2c(=O)[nH]c3c(C(N)=O)nc(-c4ccc(OCc5ccccc5)cc4)nc32)cc1`, the IC50 was > 40 µM (inactive). `Nc1ncnc2c1ncn2[C@@H]1O[C@H](CO)C[C@@H]1O` was tested, and the IC50 was > 40 µM (inactive). In the case of `O=C(Nc1cc(F)c2nc(N3CCOCC3)ccc2c1)C1CC1`, the pIC50 was 4.47. In the case of `Cc1nc(SCC(=O)Nc2ccc(S(N)(=O)=O)cc2)c2cnn(-c3ccccc3)c2n1`, the IC50 was > 40 µM (inactive). For `Cc1ccc(C)c(Cn2cnc3c(nnn3-c3cccc(F)c3)c2=O)c1`, the IC50 was > 40 µM (inactive). `O=C(COC(=O)c1ccc(NS(=O)(=O)c2ccc(F)c(F)c2)cc1)Nc1ccc(OCc2ccccc2)cc1` was tested, and the IC50 was > 40 µM (inactive). `CCc1ccccc1NC(=O)CN1C(=O)C2CCCC2=Nc2ccccc21` (centres undefined) was tested, and the IC50 was > 40 µM (inactive). In the case of `O=C(/C=C/C=C/C=C/C1CCCCC1)NC1=C[C@@](O)(/C=C/C=C/C=C/C(=O)NC2=C(O)CCC2=O)[C@@H]2O[C@@H]2C1=O`, the IC50 was > 40 µM (inactive). With `Cc1ccc(N2CC(C(=O)Nc3cccc(-c4noc(C)n4)c3)CC2=O)cc1` (centres undefined) the IC50 was > 40 µM (inactive). With `CCC(C)N1CNc2c(c(=O)[nH]c(=O)n2Cc2ccco2)C1` (centres undefined) the IC50 was > 40 µM (inactive). In the case of `O=C(NCc1ccco1)c1ccc(Cn2c(SCc3ccccc3)nc3ccncc32)cc1`, the IC50 was > 40 µM (inactive). In the case of `CC1CCc2c(sc(NC(=O)c3cccc(S(C)(=O)=O)c3)c2C(N)=O)C1` (centres undefined), the IC50 was > 40 µM (inactive). In the case of `O=c1c2[nH]c3ccccc3c2ncn1CCC1=CCCCC1`, the IC50 was > 40 µM (inactive). `COc1cccc(NC(=O)Cn2cc(C(=O)c3ccc(C)cc3)c(=O)c3cc(Cl)ccc32)c1` showed a pIC50 of 4.71. `COc1ccc(Sc2nc3ccccc3n3cnnc23)cc1` showed a pIC50 of 4.49. Work on `O=C(Nc1ccccc1F)c1nc(-c2cn(-c3ccc(F)cc3)nn2)no1` yielded a pIC50 of 4.65. In the case of `COc1ccc(Nc2nc3c(S(=O)(=O)c4ccc(C)cc4)nnn3c3ccsc23)c(OC)c1`, the IC50 was > 40 µM (inactive). For `COc1ccccc1NC(=O)CSC1=NC2(CCCCC2)Nc2ccccc21`, the IC50 was > 40 µM (inactive). With `O=C(Nc1ccc(NC(=O)c2ccccc2O)cc1)Nc1ccc(OCc2ccccc2)cc1` the IC50 was > 40 µM (inactive). For `COC(=O)c1ccc2c(=O)n(CCCCCC(=O)NCc3cccc(Cl)c3)c(=O)[nH]c2c1`, the IC50 was > 40 µM (inactive). In the case of `COc1cc(NC(=O)Cn2c(=O)n(-c3ccc(CC(=O)NCc4ccco4)cc3)c(=O)c3ccccc32)cc(OC)c1`, the IC50 was > 40 µM (inactive). Compound `O=c1cc(-c2ccc(O)c(O)c2)oc2cc(O[C@@H]3O[C@H](CO)[C@@H](O)[C@H](O)[C@H]3O)cc(O)c12` has a pIC50 of 5.70. `COCCCNC(=O)c1ccc(Cn2c(=O)c3ccccc3n(CC(=O)Nc3ccc4c(c3)OCCO4)c2=O)cc1` was tested, and the IC50 was > 40 µM (inactive). For `COc1ccc(NC(=O)Cn2cc(C(=O)c3ccc(F)cc3)c(=O)c3cc(C)ccc32)cc1OC`, the IC50 was > 40 µM (inactive).
